Where no end group is shown, it is not given here. [ ]: non-standard residue; d: D form. The star is where a group is joined. Hexanoyl = CCCCCC(=O)*; Aib = CC(C)(N)C(=O)O

The target of one series is T1, human VPAC1 (Homo sapiens, UniProt P32241).
T1 sequence (P32241 31-457): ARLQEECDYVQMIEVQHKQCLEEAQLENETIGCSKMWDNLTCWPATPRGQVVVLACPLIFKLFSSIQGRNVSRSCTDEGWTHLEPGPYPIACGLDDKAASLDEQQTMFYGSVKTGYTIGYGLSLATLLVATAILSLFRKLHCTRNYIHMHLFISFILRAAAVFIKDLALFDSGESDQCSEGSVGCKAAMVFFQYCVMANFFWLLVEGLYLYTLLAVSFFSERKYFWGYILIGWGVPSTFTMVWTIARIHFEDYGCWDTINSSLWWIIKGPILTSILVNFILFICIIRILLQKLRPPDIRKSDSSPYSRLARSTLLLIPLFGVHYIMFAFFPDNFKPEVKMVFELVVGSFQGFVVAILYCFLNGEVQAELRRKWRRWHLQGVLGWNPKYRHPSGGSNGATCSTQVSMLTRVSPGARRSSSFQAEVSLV
As to the kind of experiment: Filter binding assay, membranes of cells transiently transfected with human VPAC1, 125I-labeled VIP tracer (Table 2). Also on record: expressed in transfected cells. The following applies: read-out: Human VPAC1 Receptor Binding. The essentials:
(§1)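 Membranes 2.5 μg/well; tracer ~40000 cpm; buffer 25 mM HEPES pH 7.4, 0.5% protease-free BSA; 1 h incubation, shaking. Glass-fibre filtration (0.5% polyethyleneamine presoak, 0.2% BSA block), 3× HEPES wash, dry 1 h at 60° C, scintillation count.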

A short description of series [1]: Rat serum stability studies (remaining active peptide by DiscoveRx cAMP on CHO-VPAC2 cells). The series is classed as in vitro ADME. In short, it runs like this: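 EC50 from a DiscoveRx cAMP read-out on CHO-VPAC2 cells indexes how much peptide stays active after 18 h in rat serum at 37° C without aprotinin, against an aprotinin-protected 4° C aliquot.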
In another series the target is T2, rat VPAC2 receptor (Rattus norvegicus, UniProt P35000).
T2 sequence (P35000 23-437): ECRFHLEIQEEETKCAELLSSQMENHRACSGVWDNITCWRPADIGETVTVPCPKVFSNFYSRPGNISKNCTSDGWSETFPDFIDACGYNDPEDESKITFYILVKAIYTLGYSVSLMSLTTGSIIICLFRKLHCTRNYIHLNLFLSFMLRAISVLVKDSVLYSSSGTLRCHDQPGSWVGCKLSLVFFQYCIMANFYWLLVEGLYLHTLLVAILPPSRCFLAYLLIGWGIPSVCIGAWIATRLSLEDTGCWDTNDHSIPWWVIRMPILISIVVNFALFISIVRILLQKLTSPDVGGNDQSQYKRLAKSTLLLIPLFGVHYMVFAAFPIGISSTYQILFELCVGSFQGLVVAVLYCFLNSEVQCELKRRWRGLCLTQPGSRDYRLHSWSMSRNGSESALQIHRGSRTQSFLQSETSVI
As to the kind of experiment: DiscoveRx in vitro potency, CHO-PO cells transiently transfected with rat VPAC 2 receptor DNA. The series is classed as cell-based. Set-up: expressed in transfected cells; host or cells: CHO-PO, transient. The method, then: (§2) Also, the cells are washed twice. […] The stimuli are present for 30 minutes. Then, the assay buffer is gently removed.

A further series deals with T3, human PAC1 (Homo sapiens, UniProt P41586).
T3 sequence (P41586 21-468): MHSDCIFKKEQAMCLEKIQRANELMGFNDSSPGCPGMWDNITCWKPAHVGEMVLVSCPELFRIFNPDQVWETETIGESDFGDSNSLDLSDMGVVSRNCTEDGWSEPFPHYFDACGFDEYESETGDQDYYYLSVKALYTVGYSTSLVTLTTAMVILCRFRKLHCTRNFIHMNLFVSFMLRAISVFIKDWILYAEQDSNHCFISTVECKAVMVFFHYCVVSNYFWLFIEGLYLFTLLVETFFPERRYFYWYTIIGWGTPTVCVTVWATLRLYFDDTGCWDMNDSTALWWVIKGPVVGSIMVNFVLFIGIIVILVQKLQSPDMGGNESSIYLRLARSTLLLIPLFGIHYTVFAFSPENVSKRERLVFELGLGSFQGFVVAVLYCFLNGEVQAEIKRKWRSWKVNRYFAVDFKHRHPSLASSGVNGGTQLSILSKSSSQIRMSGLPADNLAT
In words: Filter binding assay, membranes of cells transiently transfected with human PAC1, 125I-labeled PACAP-27 tracer (Table 2). Also on record: expressed in transfected cells. As to conditions: read-out: Human PAC1 Receptor Binding. The essentials:
as §1

In series [2] the target is T4, human VPAC2 (Homo sapiens, UniProt P41587).
T4 construct: expressed in transfected cells
T4 sequence (P41587 24-438): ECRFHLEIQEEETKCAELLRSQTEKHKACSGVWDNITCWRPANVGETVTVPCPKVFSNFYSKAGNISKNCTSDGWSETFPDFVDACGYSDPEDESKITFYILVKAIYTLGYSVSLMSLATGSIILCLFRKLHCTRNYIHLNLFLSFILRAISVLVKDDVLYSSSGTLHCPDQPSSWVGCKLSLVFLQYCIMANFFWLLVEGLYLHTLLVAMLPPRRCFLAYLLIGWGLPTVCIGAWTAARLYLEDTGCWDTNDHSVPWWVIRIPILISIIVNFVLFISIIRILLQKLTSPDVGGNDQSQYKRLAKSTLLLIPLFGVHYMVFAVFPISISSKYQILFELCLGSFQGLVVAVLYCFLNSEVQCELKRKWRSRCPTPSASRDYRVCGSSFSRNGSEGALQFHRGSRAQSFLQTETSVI
As to the kind of experiment: Alpha screen cAMP in vitro potency, human VPAC2 receptor. The following applies: cAMP generation; single result from two analyses performed in a single run; read-out: Human VPAC2 Receptor: Alpha Screen EC50. The series is classed as cell-based. The essentials:
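Dissociated cells, 50,000 per point in stimulation buffer, were incubated with stimuli and AlphaScreen acceptor beads for 60 min.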

Series [3] concerns the target T4, human VPAC2. As to the kind of experiment: Filter binding assay, membranes of stable VPAC2 cell line, 125I-labeled VIP tracer (Table 2). The following applies: read-out: Human VPAC2 Receptor Binding. In short, it runs like this: as §1
The next series deals with T5, rat VPAC1 receptor (Rattus norvegicus, UniProt P30083).
T5 sequence (P30083 31-459): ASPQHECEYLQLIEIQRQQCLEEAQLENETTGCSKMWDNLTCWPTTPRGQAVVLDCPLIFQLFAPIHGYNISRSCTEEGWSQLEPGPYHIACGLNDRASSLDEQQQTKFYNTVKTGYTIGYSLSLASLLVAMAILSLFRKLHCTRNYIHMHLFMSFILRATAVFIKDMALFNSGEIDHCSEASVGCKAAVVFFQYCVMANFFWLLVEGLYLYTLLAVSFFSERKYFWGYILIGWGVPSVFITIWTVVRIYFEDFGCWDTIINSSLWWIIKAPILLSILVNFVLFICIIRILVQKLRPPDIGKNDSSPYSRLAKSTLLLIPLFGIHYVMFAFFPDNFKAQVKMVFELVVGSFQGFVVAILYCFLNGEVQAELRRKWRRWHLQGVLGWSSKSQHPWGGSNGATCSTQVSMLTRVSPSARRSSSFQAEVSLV
In words: DiscoveRx in vitro potency, CHO-PO cells transiently transfected with rat VPAC 1 receptor DNA. The series is classed as cell-based. Also on record: expressed in transfected cells; host or cells: CHO-PO, transient. On the procedure: as §2

For series [4] the following is noted: rat, in vivo, iv, 10 ug/kg.
Experimental: (§3) An IVGTT with glucose is given immediately after T=0 to 6 animals per condition. Samples are taken at 0, 2, 4, 6, and 10 minutes after injection.
(§4) For cell handling, Plate 50,000 cells/well and keep in culture over night. Wash cell twice in PBS and add 50 μl/well stimulation medium consisting of PBS+1.2 MgCl2, 1.3 CaCl2, 2 glucose and 0.5 IBMX. Incubate 15 minutes and add 50 μl/well of the plasma samples (see layout below). Incubate 30 minutes, remove the supernatant and proceed as normal with the DiscoveRx assay. Prepare plates in duplicate. Protease and peptidase inhibitor are present in all plasma samples.
The target of series [5] is T4, human VPAC2. As to the kind of experiment: DiscoveRx cAMP in vitro potency, CHO-S cell line stably expressing human VPAC2 receptor. The series is classed as cell-based. As to conditions: cAMP generation; mean of two independent runs. The method, then: Also, the cells are washed twice. The cells are incubated in assay buffer plus IBMX for 15 minutes at room temperature. […] The stimuli are present for 30 minutes. Then, the assay buffer is gently removed. […] At day 3, the assay described above for the VPAC2 receptor cell line is performed.

The test system of a further series is Normal Wistar rats. As to the kind of experiment: Intravenous glucose tolerance test (IVGTT). It counts as in vivo, rat. The following applies: IVGTT, insulin. The method, then:
Intravenous glucose tolerance test (IVGTT): Normal Wistar rats are fasted overnight and are anesthetized prior to the experiment. A blood sampling catheter is inserted into the rats. The compound is given in the jugular vein. Blood samples are taken from the carotid artery. A blood sample is drawn immediately prior to the injection of glucose along with the compound. After the initial blood sample, glucose mixed with compound is injected intravenously (i.v.). A glucose challenge of 0.5 g/kg body weight is given, injecting a total of 1.5 mL vehicle with glucose and agonist per kg body weight. The peptide concentration vary to produce the desired dose in μg/kg. Blood samples are drawn at 2, 4, 6 and 10 minutes after giving glucose. The control group of animals receives the same vehicle along with glucose, but with no compound added. In some instances, a 30 minute post-glucose blood sample is drawn. Aprotinin is added to the blood sample (250 kIU/ml blood). The serum is then analyzed for glucose and insulin using standard methodologies.
The assay uses a formulated and calibrated peptide stock in PBS. Normally, this stock is a prediluted 100 μM stock. However, a more concentrated stock with approximately 1 mg agonist per mL is used. The specific concentration is always known. Variability in the maximal response is mostly due to variability in the vehicle dose.

The nature of a further series: in vivo. The following applies: Wistar, rat, iv, 10 ug/kg.

Experimental for in vivo: as §3, §4

As a reminder, the EC50 is the concentration that produces a half-maximal response. For the substance “Hexanoyl-HSDAVFTDNYTRLR[Aib]QLAAK[Aib]YLQSIKNKRYGGPSSGAPPPS [Agonist P284]”, the IC50 at human VPAC1 is over 3000 nM; at human PAC1 it was over 25 µM; at human VPAC2 [3] it was 0.38 nM. The “Rat Serum Stability (estimated purity in % after 18 hours)” value in series [1] is 27.89%. Besides, the EC50 at rat VPAC2 receptor came out at 0.07 nM; at human VPAC2 [2], 0.18 nM; on rat VPAC1 receptor it was 0.44 nM.

What is called AUC(0-t) is the area under the concentration-time curve up to a stated or last time point. Read a low AUC(0-t) as low exposure. As a reminder, the Cmax is the maximum level reached in the sampled fluid or tissue. Usually half-life stands for the time needed for the level to fall by half in the phase considered. Read a high half-life as slow decline. Consider “HSDAVFTDNYTRLLAKVAAKKYLQSIKNKRYGGPSSGAPPPS [Agonist P89]”, for which the values for the IC50 at human VPAC1 and on human VPAC2 [3] were 162 nM and 0.15 nM, respectively. In addition, the “Exposure (10 μg/kg, Vdist in μg/(nM * kg))” value in [4] turned out to be 0.64 µg/nM/kg. Moreover, the “Rat Serum Stability (Estimated purity in % after 72 hours)” value in [1] is reported as under 0.4%. The results for the EC50 on human VPAC2 [5], at human VPAC2 [2] and on rat VPAC1 receptor were 0.7 nM, 1.23 nM and 0.02 nM, respectively. The “% increase AUC: Dose = 0.5 μg/kg” value with Normal Wistar rats (0.5 μg/kg) came out at 110%. In addition, the “% increase AUC: Dose = 10 μg/kg” value with Normal Wistar rats (10 μg/kg) came out at 280%. The substance also gave an area under the curve AUC(0-t) in “in vivo” of 0.523 nM·h. Moreover, in the series “in vivo”, the Cmax was determined as 5.45 nM. In the series “in vivo”, this substance gave a half-life of 1.32 min.

Source of the values: US20080026996A1, “Selective Vpac2 Receptor Reptide Agonists” (ELI LILLY AND COMPANY, priority 2004, published 2008).
